Test in all cases: NCI tumour cell line growth inhibition, 48 h
Assay [1] relates to NCI-H23 lung.
Assay [2] deals with RPMI-8226 leukemia.
Assay [3] relates to 786-0 renal.
Assay [4] deals with OVCAR-3 ovarian.
For assay [5], the system named is KM12 colon.
Assay [6] deals with K-562 leukemia.
Assay [7] has as its system M14 melanoma.
Assay [8] has as its system MDA-N.
In assay [9] the test system is T-47D breast.
Assay [10] deals with NCI-H460 lung.
Assay [11] has as its system MCF7 breast.

Structures are written as SMILES.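 The compound was tested at five concentrations on cells cultured in 96-well plates, with a 48-hour exposure period. At the TGI there is no net growth.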

Take `CCOC(=O)C(SCCO)C(C(=O)OCC)n1ccc(N)nc1=O` (centres undefined): the TGI in assay [1], in assay [2], in [3], in assay [4], in [5] and in [6] was more than 100 µM throughout. In addition, the TGI in [7], in assay [8], in assay [9], in assay [10] and in assay [11] was more than 100 µM throughout.

As to `COc1cc2c(cc1C)NC(=O)/C2=C/c1c(Cl)[nH]c2cc(C)c(OC)cc12`, the TGI is 11.6 µM in [1]; more than 48.9 µM in [2]; 18.2 µM in [3]; 8.6 µM in assay [4]; 15.5 µM in [5]; more than 41.6 µM in assay [6]. The TGI in [7] is 13.7 µM; in assay [8], 8.93 µM; in assay [9] it was 25.8 µM; in assay [10] it was 5.71 µM; in assay [11], 20.4 µM.

In the case of `CCCCc1ccc(Nc2nc3c(ncn3C3OC(COC(C)=O)C(OC(C)=O)C3OC(C)=O)c(=O)[nH]2)cc1` (centres undefined), the TGI in [1] is 32.5 µM; in assay [2], 48.9 µM; in assay [3] it was 32 µM; in [4], 31.6 µM; in assay [5], 35.2 µM; in assay [6], 38.5 µM. For the same molecule, the TGI came out at 41.2 µM in [7]; 35.4 µM in assay [8]; 30 µM in assay [9]; 32.7 µM in assay [10]; 63.2 µM in assay [11].

`CC(=O)OCC1C(C(C)OC(C)=O)CCC2C1CCC1(C)C(OC(C)=O)CCC21` (centres undefined): the TGI in assay [1] amounted to 76.1 µM; in [2], 69.9 µM; in [3] it was 49.5 µM; in assay [4] it was 41.9 µM; in assay [5], 31.3 µM; in assay [6] it was 36.8 µM. The TGI in assay [7] worked out at 31.9 µM; in assay [8] it was 37 µM; in assay [9] it was 65.7 µM; in assay [10], 31.8 µM; in assay [11], 33.8 µM.

As for `CCN(CC)CCN1c2ccccc2Sc2ccc3ccccc3c21`, the TGI amounted to 31.9 µM in assay [1]; 10.7 µM in [2]; 23.9 µM in [3]; 24.6 µM in assay [4]; 19.7 µM in assay [5]; 15.7 µM in assay [6]. Also, the TGI in assay [7] was 8.52 µM; in assay [8] it was 25.3 µM; in [9], 19.1 µM; in assay [10], 6.42 µM; in [11] it was 23.6 µM.

For the molecule `CS(C)(=O)=N/C=C\C(=O)C(Cl)(Cl)Cl`, the TGI in assay [1], in [2], in assay [3], in [4], in assay [5] and in assay [6] was more than 100 µM in each case. Also, the TGI in [7], in assay [8], in assay [9], in assay [10] and in assay [11] was more than 100 µM each time.

As for `O=C(N/N=C(/COc1cccc(Cl)c1)N=Cc1ccncc1)c1ccncc1`, the TGI in assay [1], in assay [2], in assay [3], in assay [4], in assay [5] and in assay [6] was more than 100 µM in each case. Moreover, the TGI in assay [7], in [8], in assay [9], in assay [10] and in assay [11] was more than 100 µM in each case.

As for `CC1=C(C)C(=O)OC(C(C)(O)C2(O)CCC3(O)C4CC(Cl)C5(O)C(O)C=CC(=O)C5(C)C4CCC32C)C1` (centres undefined), the TGI was more than 100 µM in assay [1]; 47.3 µM in assay [2]; more than 100 µM in [3]; more than 100 µM in assay [4]; more than 100 µM in [5]; more than 100 µM in assay [6]. Moreover, the TGI in [7], in [8], in assay [9], in assay [10] and in [11] was more than 100 µM throughout.

For the molecule `O=C(CSc1nc2ccc(I)cc2c(=O)n1Cc1ccccc1)N/N=C/c1ccccc1`, the TGI in [1] is 71.3 µM; in assay [2] it was more than 100 µM; in assay [3] it was 32.6 µM; in assay [4], 33.6 µM; in [5] it was more than 100 µM; in [6] it was more than 100 µM. Further, the TGI is more than 100 µM in assay [7]; more than 100 µM in assay [8]; 79.9 µM in assay [9]; more than 100 µM in assay [10]; more than 100 µM in [11].

For the molecule `Cn1c(-c2ccccc2)cc(-c2ccc3c(c2)OCO3)c1-c1cccs1`, the TGI in assay [1], in [2], in [3], in assay [4], in [5] and in [6] was more than 100 µM in each case. In addition, the TGI in assay [7], in [8], in assay [9], in assay [10] and in assay [11] was more than 100 µM in each case.

Turning to `COc1cc(/C=C2\C(=O)N(c3cccc(Cl)c3)C(c3ccccc3)S2(=O)=O)cc(OC)c1OC` (centres undefined), the TGI was more than 100 µM in [1]; 80.1 µM in assay [2]; more than 100 µM in [3]; more than 100 µM in assay [4]; more than 100 µM in [5]; more than 100 µM in [6]. Besides, the TGI in assay [7] is more than 100 µM; in assay [8] it was 46.6 µM; in assay [9], more than 100 µM; in assay [10], more than 100 µM; in [11], more than 100 µM.

As to `NS(=O)(=O)c1ccc(NNC(=O)c2cccc3c(=O)c4ccccc4[nH]c23)cc1`, the TGI in assay [1], in [2], in [3], in assay [4], in [5] and in [6] was more than 100 µM throughout. The TGI in [7], in assay [8], in [9], in assay [10] and in assay [11] was more than 100 µM each time.

For `Cc1ccnc(NS(=O)(=O)c2ccc(NC(=O)c3ccc4nc5ccccc5c(Nc5ccc(S(=O)(=O)Nc6nccc(C)n6)cc5)c4c3)cc2)n1`, the TGI in [1] was more than 100 µM; in [2], more than 100 µM; in assay [3] it was more than 100 µM; in assay [4] it was 95.6 µM; in [5] it was more than 100 µM; in assay [6] it was more than 100 µM. In addition, the TGI was more than 100 µM in assay [7]; more than 100 µM in assay [8]; more than 100 µM in assay [9]; more than 100 µM in [10]; 75.1 µM in assay [11].

As for `COc1cc(Cn2c3c(c4c(CN(C)C)c(O)ccc42)C(=O)c2ccccc2C3=O)cc(OC)c1`, the TGI is 29.1 µM in [1]; 41.5 µM in [2]; 27.6 µM in assay [3]; 90.5 µM in assay [4]; more than 100 µM in assay [5]; 36.8 µM in assay [6]. Moreover, the TGI in assay [7] was 32.6 µM; in [8], 31.6 µM; in [9] it was more than 100 µM; in assay [10], 32.3 µM; in assay [11], 29.4 µM.

Source of the values: PubChem BioAssay (NCI).
